Laboratory results from patent US11771685B2, “Compounds for the treatment of neurological or mitochondrial diseases” (MUSC FOUNDATION FOR RESEARCH DEVELOPMENT, priority 2018, dated 2023).

Tested on: 6 Hz 40 V electrically-induced seizures in rats
Assay: Rat 6 Hz 40 V seizure model
Type: in vivo
Procedure: In particular, using (i) electrical model to test for seizures in mice and, separately, (ii) in rat 6 Hz 40V model. More specifically, NT-102 was injected (i.p.) in 5% DMSO/95% Miglyol 840 as vehicle. Mice were challenged with 6 Hz 44 mA current to see if seizures would result. […] The Time of Peak Effect (TPE) was observed 1 hour. Additional data is shown below in Table 5. The mice were administered the NT-102 at various doses and placed on the rotarod (i.e., “Rotarod (Tox)”) to test if the mice would fall off as a model of due to the effects of NT-102; for the “Rotarod(Tox)” results, the “NIT” indicates the number of mice that fell off the rotarod (e.g., for Rotarod(Tox) results, if N/T is 0/8, then zero out of eight mice fell off). For the electrical stimulation data (i.e., “6 Hz 44 mA”), an electrical stimulation of 6 Hz 44 mA was administered. […] The 44 mA electrical dosage was used since it is considered to be a model to test for medication-resistant epilepsy.
The 6 Hz 40 V electrical stimulation amount was used because this electrical dosage is considered to be a rat model for medication-resistant epilepsy.

CC(C)CCNC1=CC(=O)c2ccccc2C1=O [Compound 17, 2-(Isopentylamino)naphthalene-1,4-dione]
6 Hz 40 V N/T, rats protected (200 mg/kg, 1 hr): 1/8
6 Hz 40 V N/T, rats protected (250 mg/kg, 1 hr): 2/8
6 Hz 40 V N/T, rats protected (300 mg/kg i.p., 0.25 hr): 3/8
6 Hz 40 V N/T, rats protected (300 mg/kg i.p., 0.5 hr): 0/8
6 Hz 40 V N/T, rats protected (300 mg/kg i.p., 1 hr): 5/8
6 Hz 40 V N/T, rats protected (300 mg/kg i.p., 2 hr): 0/4
6 Hz 40 V N/T, rats protected (300 mg/kg i.p., 4 hr): 0/4
6 Hz 40 V N/T, rats protected (350 mg/kg, 1 hr): 6/8
ED50 (Rattus norvegicus, 6 Hz 40 V): 293 mg/kg
Time to peak result (i.p., 6 Hz 40 V): about one
